Source: US11274083B2, “Substituted thiophenyl uracils, salts thereof and the use thereof as herbicidal agents” (Syngenta Crop Protection AG, priority 2017, dated 2022)

Tests used:
Type in all cases: in vivo
Matricaria inodora [1] = assay: Herbicidal action pre-emergence, greenhouse pot test
Description: Seeds of mono- and dicotyledonous weeds and crop plants were laid out in plastic or organic plant pots and covered with soil. The compounds of the invention formulated in the form of wettable powders (WP) or as emulsion concentrates (EC) were then applied to the surface of the covering soil as an aqueous suspension or emulsion with addition of 0.5% additive at a water application rate equivalent to 600 L/ha. After the treatment, the pots were placed in a greenhouse and kept under good growth conditions for the test plants. After about 3 weeks, the efficacy of the preparations was scored visually as a percentage by comparison with untreated controls. For example, 100% efficacy=plants have died. 0% efficacy=like control plants. Tables B1 to B17 below show the efficacies of selected compounds of the general formula (I) […] aforementioned trial method.

Setaria viridis [2] = assay: Herbicidal action post-emergence, greenhouse pot test
Summary of the method: (§1)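 Greenhouse; sandy loam; one-leaf stage; WP or EC formulation; 80 g/ha or lower; 0.5% additive; 600 L/ha; visual % kill at about 3 weeks relative to untreated.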

Polygonum convolvulus [3] = assay: as above
Summary of the method: as §1

Veronica persica [4] = assay: as above; details: application rate 80 g/ha
Summary of the method: as §1

Echinochloa crus-galli [5] = assay: as above; details: application rate 80 g/ha
Summary of the method: as §1

Matricaria inodora [6] = assay: as above
Summary of the method: as §1

Alopecurus myosuroides [7] = assay: as above; details: application rate 80 g/ha, scored visually after about 3 weeks vs untreated controls
Summary of the method: as §1

Lolium rigidum [8] = assay: as above; details: application rate 80 g/ha
Summary of the method: as §1

Amaranthus retroflexus [9] = assay: as above; details: application rate 80 g/ha
Summary of the method: as §1

Stellaria media [10] = assay: as above; details: application rate 80 g/ha
Summary of the method: as §1

Pharbitis purpurea [11] = assay: as above
Summary of the method: as §1

Abutilon theophrasti [12] = assay: as above; details: application rate 80 g/ha
Summary of the method: as §1

Viola tricolor [13] = assay: as above; details: application rate 20 g/ha
Summary of the method: as §1

Triticum aestivum = assay: Crop compatibility post-emergence, greenhouse pot test; details: application rate 20 g/ha
Summary of the method: (§2)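 Sandy loam pots, greenhouse; one-leaf stage, 2–3 wk post-sowing; WP or EC, aq. spray on green parts, 0.5% additive, 600 L/ha; ~3 wk; visual score % vs untreated (0 = control-like, 100 = dead).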

Setaria viridis [14] = assay: Herbicidal action pre-emergence, greenhouse pot test
Description: (§3) Seeds of mono- and dicotyledonous weeds and crop plants were laid out in plastic or organic plant pots and covered with soil. The compounds of the invention formulated in the form of wettable powders (WP) or as emulsion concentrates (EC) were then applied to the surface of the covering soil as an aqueous suspension or emulsion with addition of 0.5% additive at a water application rate equivalent to 600 L/ha. After the treatment, the pots were placed in a greenhouse and kept under good growth conditions for the test plants. After about 3 weeks, the efficacy of the preparations was scored visually as a percentage by comparison with untreated controls. For example, 100% efficacy=plants have died. 0% efficacy=like control plants. Tables B1 to B17 below show the efficacies of selected compounds of the general formula (I) according to tables I.1 to I.50 on various harmful plants and an application rate corresponding to 320 g/ha or lower that were obtained by the aforementioned trial method.

Polygonum convolvulus [15] = assay: as above
Description: as §3

Veronica persica [16] = assay: as above
Description: as §3

Echinochloa crus-galli [17] = assay: as above; details: application rate 320 g/ha
Description: as §3

Hordeum murinum = assay: as above; details: application rate 320 g/ha
Description: as §3

Alopecurus myosuroides [18] = assay: as above; details: application rate 320 g/ha
Description: as §3

Lolium rigidum [19] = assay: as above
Description: as §3

Amaranthus retroflexus [20] = assay: as above; details: application rate 80 g/ha
Description: as §3

Stellaria media [21] = assay: as above
Description: as §3

Pharbitis purpurea [22] = assay: as above
Description: as §3

Abutilon theophrasti [23] = assay: as above
Description: as §3

Avena fatua = assay: as above; details: application rate 320 g/ha
Description: as §3

Viola tricolor [24] = assay: as above
Description: as §3

Oryza sativa = assay: Crop compatibility post-emergence, greenhouse pot test
Summary of the method: as §2

Zea mays = assay: as above
Summary of the method: as §2

Cyperus esculentus = assay: Herbicidal action pre-emergence, greenhouse pot test; details: application rate 320 g/ha
Description: as §3

Compound	Setaria viridis (Efficacy in %) (Setaria viridis [2]; application rate 80 g/ha)	Polygonum convolvulus (Efficacy in %) (Polygonum convolvulus [3]; application rate 80 g/ha)	Veronica persica (Efficacy in %) (Veronica persica [4])	Echinochloa crus-galli (Efficacy in %) (Echinochloa crus-galli [5])	Matricaria inodora (Efficacy in %) (Matricaria inodora [6]; application rate 80 g/ha)	Alopecurus myosuroides (Efficacy in %) (Alopecurus myosuroides [7])	Amaranthus retroflexus (Efficacy in %) (Amaranthus retroflexus [9])	Stellaria media (Efficacy in %) (Stellaria media [10])	Pharbitis purpurea (Efficacy in %) (Pharbitis purpurea [11]; application rate 80 g/ha)	Abutilon theophrasti (Efficacy in %) (Abutilon theophrasti [12])	Triticum aestivum (Efficacy in %) (Triticum aestivum)	Echinochloa crus-galli (Efficacy in %) (Echinochloa crus-galli [17])	Hordeum murinum (Efficacy in %) (Hordeum murinum)	Alopecurus myosuroides (Efficacy in %) (Alopecurus myosuroides [18])	Amaranthus retroflexus (Efficacy in %) (Amaranthus retroflexus [20])	Avena fatua (Efficacy in %) (Avena fatua)	Setaria viridis (Efficacy in %) (Setaria viridis [14]; application rate 320 g/ha)	Polygonum convolvulus (Efficacy in %) (Polygonum convolvulus [15]; application rate 320 g/ha)	Veronica persica (Efficacy in %) (Veronica persica [16]; application rate 320 g/ha)	Lolium rigidum (Efficacy in %) (Lolium rigidum [19]; application rate 320 g/ha)	also measured
CCOC(=O)CC(C)OC(=O)C(C)Sc1cc(-n2c(=O)cc(C(F)(F)F)n(C)c2=O)c(F)cc1Cl (stereo not shown) [I.1-23]	100%	100%	100%	100%	100%	90%	100%	100%	100%	100%	20%	100%	100%	100%	100%	100%					Matricaria inodora (Efficacy in %) (Matricaria inodora [1]; application rate 800 g/ha): 100%; Lolium rigidum (Efficacy in %) (Lolium rigidum [8]): 90%; Viola tricolor (Efficacy in %) (Viola tricolor [13]): 100%; Setaria viridis (Efficacy in %) (Setaria viridis [14]; application rate 80 g/ha): 100%; Polygonum convolvulus (Efficacy in %) (Polygonum convolvulus [15]; application rate 80 g/ha): 100%; Veronica persica (Efficacy in %) (Veronica persica [16]; application rate 80 g/ha): 100%; Lolium rigidum (Efficacy in %) (Lolium rigidum [19]; application rate 80 g/ha): 100%; Stellaria media (Efficacy in %) (Stellaria media [21]; application rate 80 g/ha): 100%; Pharbitis purpurea (Efficacy in %) (Pharbitis purpurea [22]; application rate 80 g/ha): 100%; Abutilon theophrasti (Efficacy in %) (Abutilon theophrasti [23]; application rate 80 g/ha): 100%; Viola tricolor (Efficacy in %) (Viola tricolor [24]; application rate 80 g/ha): 100%
COC(=O)C(C)(C)OC(=O)C(C)Sc1cc(-n2c(=O)cc(C(F)(F)F)n(C)c2=O)c(F)cc1Cl (stereo not shown) [I.1-132]	100%	100%	100%	100%	90%	80%	100%	100%	100%	100%	10%	100%	80%	100%	100%	90%	100%	100%	100%	100%	Matricaria inodora (Efficacy in %) (Matricaria inodora [1]; application rate 320 g/ha): 100%; Oryza sativa (Efficacy in %) (Oryza sativa; application rate 80 g/ha): 20%; Zea mays (Efficacy in %) (Zea mays; application rate 20 g/ha): 20%; Stellaria media (Efficacy in %) (Stellaria media [21]; application rate 320 g/ha): 100%; Pharbitis purpurea (Efficacy in %) (Pharbitis purpurea [22]; application rate 320 g/ha): 100%; Abutilon theophrasti (Efficacy in %) (Abutilon theophrasti [23]; application rate 320 g/ha): 100%; Viola tricolor (Efficacy in %) (Viola tricolor [24]; application rate 320 g/ha): 100%
CCOC(=O)CC(C)OC(=O)CSc1cc(-n2c(=O)cc(C(F)(F)F)n(C)c2=O)c(F)cc1Cl (stereo not shown) [I.8-23]	100%		100%	100%			100%	100%		100%	20%	100%	80%		100%		100%	100%	100%	90%	Matricaria inodora (Efficacy in %) (Matricaria inodora [1]; application rate 80 g/ha): 100%; Polygonum convolvulus (Efficacy in %) (Polygonum convolvulus [3]; application rate 20 g/ha): 100%; Matricaria inodora (Efficacy in %) (Matricaria inodora [6]; application rate 20 g/ha): 100%; Pharbitis purpurea (Efficacy in %) (Pharbitis purpurea [11]; application rate 20 g/ha): 100%; Viola tricolor (Efficacy in %) (Viola tricolor [13]): 100%; Oryza sativa (Efficacy in %) (Oryza sativa; application rate 5 g/ha): 20%; Cyperus esculentus (Efficacy in %) (Cyperus esculentus): 90%; Stellaria media (Efficacy in %) (Stellaria media [21]; application rate 80 g/ha): 100%; Pharbitis purpurea (Efficacy in %) (Pharbitis purpurea [22]; application rate 320 g/ha): 100%; Abutilon theophrasti (Efficacy in %) (Abutilon theophrasti [23]; application rate 320 g/ha): 100%; Viola tricolor (Efficacy in %) (Viola tricolor [24]; application rate 320 g/ha): 100%
CC(Sc1cc(-n2c(=O)cc(C(F)(F)F)n(C)c2=O)c(F)cc1Cl)C(=O)OC1CCOC1=O (stereo not shown) [I.1-141]		100%	100%	100%	100%	90%	100%	100%	100%	100%	20%	100%	100%	80%	100%	80%	100%	100%	100%	100%	Matricaria inodora (Efficacy in %) (Matricaria inodora [1]; application rate 320 g/ha): 100%; Setaria viridis (Efficacy in %) (Setaria viridis [2]; application rate 20 g/ha): 100%; Oryza sativa (Efficacy in %) (Oryza sativa; application rate 20 g/ha): 0%; Zea mays (Efficacy in %) (Zea mays; application rate 5 g/ha): 10%; Stellaria media (Efficacy in %) (Stellaria media [21]; application rate 320 g/ha): 100%; Pharbitis purpurea (Efficacy in %) (Pharbitis purpurea [22]; application rate 320 g/ha): 100%; Abutilon theophrasti (Efficacy in %) (Abutilon theophrasti [23]; application rate 320 g/ha): 100%; Viola tricolor (Efficacy in %) (Viola tricolor [24]; application rate 320 g/ha): 100%
